Data reported in US7425631B2 (Amgen Inc., priority 2003, dated 2008).

Target: T1, human B1 receptor (Homo sapiens, UniProt P46663)
T1 construct: expressed in transfected cells
T1 sequence (P46663 1-353): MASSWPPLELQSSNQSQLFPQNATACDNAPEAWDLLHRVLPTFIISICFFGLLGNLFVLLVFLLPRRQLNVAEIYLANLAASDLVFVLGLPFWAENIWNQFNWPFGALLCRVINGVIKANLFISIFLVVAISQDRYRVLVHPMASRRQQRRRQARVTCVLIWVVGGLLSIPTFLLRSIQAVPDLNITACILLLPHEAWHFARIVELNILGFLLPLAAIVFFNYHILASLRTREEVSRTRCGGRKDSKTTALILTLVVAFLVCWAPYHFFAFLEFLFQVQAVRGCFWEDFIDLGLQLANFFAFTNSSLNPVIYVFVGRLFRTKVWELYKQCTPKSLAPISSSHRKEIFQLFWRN
Assay: In vitro assay of human B1 receptor function using calcium flux (aequorin luminescence)
Type: cell-based
Settings: CHO D-/hB1/Aequorin cells, agonist 20 nM des-Arg10-Kallidin (EC80); read-out: binding IC50's to hB1 receptor function
Method: Activation of the Gq linked B1 receptor results in an increase in intracellular calcium. […] Aequorin is a 21-kDa photoprotein that forms a bioluminescent complex when linked to the chromophore cofactor coelenterazine.
Following coelenterazine incubation, an automated flash-luminometer platform was used to dispense the B1 antagonist compounds (dissolved in DMSO and diluted with buffer to the desired concentration (final DMSO concentration <1% DMSO)) to the cell plate, a CCD camera situated underneath the cell plate took 12 images of the cell plate at 5 second intervals to determine if there was any agonist activity with the compounds. The hB1 agonist, des-Arg10-Kallidin, was added to the cell plate and another 12 images were recorded to determine the IC50 of the antagonist(s).

Row | Structure (SMILES) | IC50
1 | O=C(C[C@@H](NS(=O)(=O)c1ccc(Cl)c(Cl)c1)c1cccc(F)c1)N[C@@H]1CCCc2cc(CNC3CCCC3)ccc21 [dx, N-(6-Cyclopentylaminomethyl-1,2,3,4-tetrahydro-naphthalen-1-yl)-3-(3,4-dichloro-benzenesulfonylamino)-3-(3-fluoro-phenyl)-propionamide] | < 10 nM
2 | O=C(C[C@@H](NS(=O)(=O)c1cccc(C(F)(F)F)c1)c1ccc(F)cc1)N[C@@H]1CCCc2cc(CN3CCC(F)CC3)ccc21 [eb, 3-(4-Fluoro-phenyl)-N-[6-(4-fluoro-piperidin-1-ylmethyl)-1,2,3,4-tetrahydro-naphthalen-1-yl]-3-(3-trifluoromethyl-benzenesulfonylamino)-propionamide] | < 10 nM
3 | O=C(C[C@@H](NS(=O)(=O)c1ccc(Cl)c(Cl)c1)c1cccc(Cl)c1)N[C@@H]1CCCc2cc(CN3CCCCC3)ccc21 [ed, 3-(3-Chloro-phenyl)-3-(3,4-dichloro-benzenesulfonylamino)-N-(6-piperidin-1-ylmethyl-1,2,3,4-tetrahydro-naphthalen-1-yl)-propionamide] | < 10 nM
4 | CC(C)(C)NCc1ccc2c(c1)OCC[C@H]2NC(=O)C[C@@H](NS(=O)(=O)c1cc(C(F)(F)F)ccc1Cl)c1ccc(F)cc1 [ej, N-[7-(tert-Butylamino-methyl)-chroman-4-yl]-3-(2-chloro-5-trifluoromethyl-benzenesulfonylamino)-3-(4-fluoro-phenyl)-propionamide] | < 10 nM
5 | CC(C)(C)NCc1ccc2c(c1)CCC[C@H]2NC(=O)C[C@H](NS(=O)(=O)c1cccc(C(F)(F)F)c1)c1ccc([N+](=O)[O-])cc1 [em, N-[6-(tert-Butylamino-methyl)-1,2,3,4-tetrahydro-naphthalen-1-yl]-3-(4-nitro-phenyl)-3-(3-trifluoromethyl-benzenesulfonylamino)-propionamide] | < 10 nM
6 | O=C(CC(NS(=O)(=O)c1cccc(C(F)(F)F)c1)c1ccc(Cl)cc1)N[C@@H]1CCCc2cc(CN3CCCCC3)ccc21 (stereo partly shown) [ex, 3-(4-Chloro-phenyl)-N-(6-piperidin-1-ylmethyl-1,2,3,4-tetrahydro-naphthalen-1-yl)-3-(3-trifluoromethyl-benzenesulfonylamino)-propionamide] | < 10 nM
7 | O=C(CC(NS(=O)(=O)c1cccc(C(F)(F)F)c1)c1cc(Cl)cc(Cl)c1)N[C@@H]1CCCc2cc(CN3CCCCC3)ccc21 (stereo partly shown) [fb, 3-(3,5-Dichloro-phenyl)-N-(6-piperidin-1-ylmethyl-1,2,3,4-tetrahydro-naphthalen-1-yl)-3-(3-trifluoromethyl-benzenesulfonylamino)-propionamide] | < 10 nM
8 | O=C(CC(NS(=O)(=O)c1cccc(C(F)(F)F)c1)c1ccccc1F)N[C@@H]1CCCc2cc(CN3CCCCC3)ccc21 (stereo partly shown) [fg, 3-(2-Fluoro-phenyl)-N-(6-piperidin-1-ylmethyl-1,2,3,4-tetrahydro-naphthalen-1-yl)-3-(3-trifluoromethyl-benzenesulfonylamino)-propionamide] | < 10 nM
9 | O=C(CC(NS(=O)(=O)c1cccc(C(F)(F)F)c1)c1ccc(F)cc1)N[C@@H]1CCCc2cc(CN3CCCCC3)ccc21 (stereo partly shown) [fh, 3-(4-Fluoro-phenyl)-N-(6-piperidin-1-ylmethyl-1,2,3,4-tetrahydro-naphthalen-1-yl)-3-(3-trifluoromethyl-benzenesulfonylamino)-propionamide] | < 10 nM
10 | O=C(C[C@@H](NS(=O)(=O)c1cccc(C(F)(F)F)c1)c1ccc(F)cc1)N[C@@H]1CCCc2cc(CNC3CCCC3)ccc21 [n, (3R)-N-((1R)-6-((cyclopentylamino)methyl)-1,2,3,4-tetrahydro-1-naphthalenyl)-3-(4-fluorophenyl)-3-(((3-(trifluoromethyl)phenyl)sulfonyl)-amino)propanamide] | < 10 nM

Further lines, results first:

Row | IC50 | Structure (SMILES)
11 | < 10 nM | CC(C)(C)NCc1ccc2c(c1)CCC[C@H]2NC(=O)C[C@@H](NS(=O)(=O)c1ccc(Cl)c(Cl)c1)c1ccccc1 [bm, (3R)-3-(((3,4-dichlorophenyl)sulfonyl)amino)-N-((1R)-6-(((1,1-dimethylethyl)amino)methyl)-1,2,3,4-tetrahydro-1-naphthalenyl)-3-phenylpropanamide]
12 | < 10 nM | O=C(CC(NS(=O)(=O)c1ccc(Cl)c(Cl)c1)c1ccc(F)cc1)NC1CCOc2cc(CN3CCCCC3)ccc21 (stereo not shown) [by, 3-(3,4-Dichloro-benzenesulfonylamino)-3-(4-fluoro-phenyl)-N-(7-piperidin-1-ylmethyl-chroman-4-yl)-propionamide]
13 | < 10 nM | O=C(C[C@@H](NS(=O)(=O)c1ccc(Cl)c(Cl)c1)c1ccc(F)cc1)N[C@@H]1CCCc2cc(CN3CCCCC3)ccc21 [bz, 3-(3,4-Dichloro-benzenesulfonylamino)-3-(4-fluoro-phenyl)-N-(6-piperidin-1-ylmethyl-1,2,3,4-tetrahydro-naphthalen-1-yl)-propionamide]
14 | < 10 nM | COCCNCc1ccc2c(c1)OCC[C@H]2NC(=O)C[C@@H](NS(=O)(=O)c1ccc(Cl)c(Cl)c1)c1ccc(F)cc1 [ce, 3-(3,4-Dichloro-benzenesulfonylamino)-3-(4-fluoro-phenyl)-N-{7-[(2-methoxy-ethylamino)-methyl]-chroman-4-yl}-propionamide]
15 | < 10 nM | CC(C)(C)NCc1ccc2c(c1)CCC[C@H]2NC(=O)C[C@@H](NS(=O)(=O)c1ccc(Cl)c(Cl)c1)c1ccc(F)cc1 [cj, N-[6-(tert-Butylamino-methyl)-1,2,3,4-tetrahydro-naphthalen-1-yl]-3-(3,4-dichloro-benzenesulfonylamino)-3-(4-fluoro-phenyl)-propionamide]
16 | < 10 nM | CC(C)CNCc1ccc2c(c1)OCC[C@H]2NC(=O)C[C@@H](NS(=O)(=O)c1cccc(C(F)(F)F)c1)c1ccc(F)cc1 [cl, 3-(4-Fluoro-phenyl)-N-[7-(isobutylamino-methyl)-chroman-4-yl]-3-(3-trifluoromethyl-benzenesulfonylamino)-propionamide]
17 | < 10 nM | CC(C)(C)NCc1ccc2c(c1)OCC[C@H]2NC(=O)C[C@@H](NS(=O)(=O)c1cccc(C(F)(F)F)c1)c1ccc(F)cc1 [co, N-[7-(tert-Butylamino-methyl)-chroman-4-yl]-3-(4-fluoro-phenyl)-3-(3-trifluoromethyl-benzenesulfonylamino)-propionamide]
18 | < 10 nM | O=C(C[C@@H](NS(=O)(=O)c1cccc(C(F)(F)F)c1)c1ccc(F)cc1)N[C@@H]1CCOc2cc(CN3CCCC3)ccc21 [ct, 3-(4-Fluoro-phenyl)-N-(7-pyrrolidin-1-ylmethyl-chroman-4-yl)-3-(3-trifluoromethyl-benzenesulfonylamino)-propionamide]
19 | < 10 nM | CC(C)(C)NCc1ccc2c(c1)CCC[C@H]2NC(=O)C[C@@H](NS(=O)(=O)c1cccc(C(F)(F)F)c1)c1cccc([N+](=O)[O-])c1 [cx, N-[6-(tert-Butylamino-methyl)-1,2,3,4-tetrahydro-naphthalen-1-yl]-3-(3-nitro-phenyl)-3-(3-trifluoromethyl-benzenesulfonylamino)-propionamide]
20 | < 10 nM | CC(C)(C)NCc1ccc2c(c1)CCC[C@H]2NC(=O)C[C@@H](NS(=O)(=O)c1cccc(C(F)(F)F)c1)c1cccc(C#N)c1 [cy, N-[6-(tert-Butylamino-methyl)-1,2,3,4-tetrahydro-naphthalen-1-yl]-3-(3-cyano-phenyl)-3-(3-trifluoromethyl-benzenesulfonylamino)-propionamide]
21 | < 10 nM | CC(C)(C)c1ccc(S(=O)(=O)N[C@H](CC(=O)N[C@@H]2CCCc3cc(CNC4CCC4)ccc32)c2ccc(F)cc2)cc1 [de, 3-(4-tert-Butyl-benzenesulfonylamino)-N-(6-cyclobutylaminomethyl-1,2,3,4-tetrahydro-naphthalen-1-yl)-3-(4-fluoro-phenyl)-propionamide]
22 | < 10 nM | CC(C)(C)c1ccc(S(=O)(=O)N[C@H](CC(=O)N[C@@H]2CCCc3cc(CN4CCCCC4)ccc32)c2ccc(F)cc2)cc1 [dh, 3-(4-tert-Butyl-benzenesulfonylamino)-3-(4-fluoro-phenyl)-N-(6-piperidin-1-ylmethyl-1,2,3,4-tetrahydro-naphthalen-1-yl)-propionamide]
23 | < 10 nM | CC(C)CNCc1ccc2c(c1)CCC[C@H]2NC(=O)C[C@@H](NS(=O)(=O)c1ccc(C(C)(C)C)cc1)c1ccc(F)cc1 [dj, 3-(4-tert-Butyl-benzenesulfonylamino)-3-(4-fluoro-phenyl)-N-[6-(isobutylamino-methyl)-1,2,3,4-tetrahydro-naphthalen-1-yl]-propionamide]
24 | < 10 nM | CC(C)(C)NCc1ccc2c(c1)CCC[C@H]2NC(=O)C[C@@H](NS(=O)(=O)c1ccc(C(C)(C)C)cc1)c1ccc(F)cc1 [do, N-[6-(tert-Butylamino-methyl)-1,2,3,4-tetrahydro-naphthalen-1-yl]-3-(4-tert-butyl-benzenesulfonylamino)-3-(4-fluoro-phenyl)-propionamide]
25 | < 10 nM | O=C(C[C@@H](NS(=O)(=O)c1cccc(C(F)(F)F)c1)c1cccc(F)c1)N[C@@H]1CCCc2cc(CN3CCCCC3)ccc21 [dq, 3-(3-Fluoro-phenyl)-N-(6-piperidin-1-ylmethyl-1,2,3,4-tetrahydro-naphthalen-1-yl)-3-(3-trifluoromethyl-benzenesulfonylamino)-propionamide]
